Drawing on PubChem BioAssay AID328 (DTP/NCI, 2004), this text covers T/C for 13 compounds.

This test has as its system BDF1 mice, P388 leukemia ip, median survival T/C. The test can be described thus: NCI In Vivo Anticancer Drug Screen. Data for tumor model P388 Leukemia (intraperitoneal) in B6D2F1 (BDF1) mice. The note with it: endpoint: median survival time, higher = longer survival. In outline: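 In tumour-bearing mice, survival after compound treatment is set against the vehicle group and given as a quotient.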

The mark [1] stands for this setting: dose: 12.5 mg/kg/injection, schedule: Q04DX003 (ip), vehicle: saline.
Where [2] appears, read: dose: 25.0 mg/kg/injection, schedule: Q01DX009 (ip), vehicle: Klucel (hydroxypropylcellulose) (HPC).
Where [3] appears, read: dose: 50.0 mg/kg/injection, schedule: Q01DX009 (ip), vehicle: Klucel (hydroxypropylcellulose) (HPC).
Setting [4] is: dose: 50.0 mg/kg/injection, schedule: Q01DX009 (ip), vehicle: saline.
Setting [5] is: dose: 50.0 mg/kg/injection, schedule: Q04DX003 (ip), vehicle: saline.
The mark [6] stands for this setting: dose: 100.0 mg/kg/injection, schedule: Q01DX009 (ip), vehicle: Klucel (hydroxypropylcellulose) (HPC).
Where [7] appears, read: dose: 100.0 mg/kg/injection, schedule: Q01DX009 (ip), vehicle: saline.
Where [8] appears, read: dose: 200.0 mg/kg/injection, schedule: Q01DX009 (ip), vehicle: saline.
The mark [9] stands for this setting: dose: 400.0 mg/kg/injection, schedule: Q04DX003 (ip), vehicle: saline.
Where [10] appears, read: dose: 100.0 mg/kg/injection, schedule: Q04DX003 (ip), vehicle: saline.
[11] abbreviates: dose: 200.0 mg/kg/injection, schedule: Q04DX003 (ip), vehicle: saline.
Setting [12] is: dose: 200.0 mg/kg/injection, schedule: Q01DX009 (ip), vehicle: Klucel (hydroxypropylcellulose) (HPC).
[13] abbreviates: dose: 400.0 mg/kg/injection, schedule: Q01DX009 (ip), vehicle: Klucel (hydroxypropylcellulose) (HPC).
Setting [14] is: dose: 100.0 mg/kg/injection, schedule: Q04DX003 (ip), vehicle: Klucel (hydroxypropylcellulose) (HPC).

SMILES strings stand for the structures. Several values for one entry are separate records, joined by “and”; a condition that tells them apart may be missing. Equal values may be shown once. Inconclusive results and toxic doses are left out.

For the compound `N[C@H](C(=O)O)[C@H]1ON=C(Cl)[C@@H]1O`, the T/C was 105 % of control (dose: 0.5 mg/kg/injection, schedule: Q01DX009 (ip), vehicle: saline with Tween-80); 105 % of control (dose: 1.0 mg/kg/injection, schedule: Q01DX009 (ip), vehicle: saline with Tween-80); 117 % of control (dose: 2.0 mg/kg/injection, schedule: Q01DX009 (ip), vehicle: saline with Tween-80); 160 % of control (dose: 6.25 mg/kg/injection, schedule: Q01DX009 (ip), vehicle: saline); 160 % of control (dose: 8.0 mg/kg/injection, schedule: Q01DX009 (ip), vehicle: saline); 239 % of control (dose: 12.5 mg/kg/injection, schedule: Q01DX009 (ip), vehicle: Klucel (hydroxypropylcellulose) (HPC)). For the same compound, the T/C was 165 % of control (dose: 12.5 mg/kg/injection, schedule: Q01DX009 (ip), vehicle: saline); 96 % of control under setting [1]; 168 % of control (dose: 16.0 mg/kg/injection, schedule: Q01DX009 (ip), vehicle: saline); 195 % of control under setting [2]; 195 % of control (dose: 25.0 mg/kg/injection, schedule: Q01DX009 (ip), vehicle: saline); 111 % of control (dose: 25.0 mg/kg/injection, schedule: Q04DX003 (ip), vehicle: saline). The T/C runs as follows: (dose: 32.0 mg/kg/injection, schedule: Q01DX009 (ip), vehicle: saline) 167 % of control; (dose: 44.0 mg/kg/injection, schedule: Q01DX009 (ip), vehicle: other) 158 % of control; under setting [3], 188 % of control; under setting [4], 215 % of control; under setting [5], 111 % of control; (dose: 64.0 mg/kg/injection, schedule: Q01DX009 (ip), vehicle: saline) 193 % of control. The T/C reads like this: under setting [6], 206 % of control; (dose: 100.0 mg/kg/injection, schedule: Q01DX009 (ip), vehicle: other) 170 % of control; under setting [7], 110 % of control; (dose: 128.0 mg/kg/injection, schedule: Q01DX009 (ip), vehicle: saline) 228 % of control; under setting [8], 90 % of control; (dose: 250.0 mg/kg/injection, schedule: Q01DX009 (ip), vehicle: saline) 192 % of control. In addition, the T/C by setting is: (dose: 256.0 mg/kg/injection, schedule: Q01DX009 (ip), vehicle: saline) 270 % of control; under setting [9], 238 % of control.
In the case of `COc1ccc(C(=O)/C(Br)=C/C(=O)O)cc1`, the T/C runs as follows: (dose: 6.3 mg/kg/injection, schedule: Q01DX009 (ip), vehicle: saline) 106 % of control; (dose: 12.5 mg/kg/injection, schedule: Q01DX009 (ip), vehicle: water) 120 % of control; (dose: 25.0 mg/kg/injection, schedule: Q01DX009 (ip), vehicle: water) 150 % of control; (dose: 25.0 mg/kg/injection, schedule: Q04DX002 (ip), vehicle: saline) 108 % of control and 109 % of control; (dose: 50.0 mg/kg/injection, schedule: Q01DX009 (ip), vehicle: water) 100 % of control; (dose: 50.0 mg/kg/injection, schedule: Q04DX002 (ip), vehicle: saline) 116 % of control and 118 % of control. For the same compound, for the setting “dose: 100.0 mg/kg/injection, schedule: Q04DX002 (ip), vehicle: saline”, the T/C is 150 % of control.
With `COc1cc(CN2CCCN(Cc3cc(OC)c(OC)c(OC)c3)C2c2ccc(N(CCCl)CCCl)cc2C)cc(OC)c1OC`, the T/C by setting is: under setting [5], 109 % of control; under setting [10], 104 % of control; under setting [11], 90 % of control; under setting [9], 109 % of control.
For the compound `ClCCN(CCCl)CCCN1c2ccccc2Sc2ccc(Cl)cc21`, the T/C runs as follows: (dose: 3.12 mg/kg/injection, schedule: Q04DX003 (ip), vehicle: saline) 97 % of control; (dose: 6.25 mg/kg/injection, schedule: Q04DX003 (ip), vehicle: saline with Tween-80) 154 % of control; (dose: 6.25 mg/kg/injection, schedule: Q04DX003 (ip), vehicle: saline) 97 % of control; under setting [1], 94 % of control.
Consider `COc1cccc(/C=N/NC(=S)NC2CC3CCC2C3)c1O` (centres undefined), for which the T/C runs as follows: (dose: 50.0 mg/kg/injection, schedule: Q01DX009 (ip), vehicle: saline with Tween-80) 100 % of control; (dose: 100.0 mg/kg/injection, schedule: Q01DX009 (ip), vehicle: saline with Tween-80) 95 % of control; (dose: 200.0 mg/kg/injection, schedule: Q01DX009 (ip), vehicle: saline with Tween-80) 103 % of control.
As for `C/C=C/C=C/C(=O)NO`, the T/C is, setting by setting: (dose: 100.0 mg/kg/injection, schedule: Q04DX003 (ip), vehicle: alcohol) 113 % of control; under setting [12], 91 % of control; (dose: 200.0 mg/kg/injection, schedule: Q04DX003 (ip), vehicle: alcohol) 100 % of control; under setting [13], 116 % of control; (dose: 400.0 mg/kg/injection, schedule: Q04DX003 (ip), vehicle: alcohol) 104 % of control.
As to `CCCN1c2c(nc(N)[nH]c2=O)NCC1CNc1ccc(C(=O)NC(CCC(=O)O)C(=O)O)cc1` (centres undefined), the T/C by setting is: under setting [7], 108 % of control; under setting [10], 112 % of control; under setting [8], 100 % of control; under setting [11], 100 % of control; (dose: 400.0 mg/kg/injection, schedule: Q01DX009 (ip), vehicle: saline) 110 % of control; under setting [9], 91 % of control.
Take `CCCN(/C=C/C=C/C=[N+](CCC)CCC)CCC`: the T/C by setting is: (dose: 0.03 mg/kg/injection, schedule: Q01DX009 (ip), vehicle: saline) 99 % of control; (dose: 0.05 mg/kg/injection, schedule: Q01DX009 (ip), vehicle: saline) 104 % of control; (dose: 0.1 mg/kg/injection, schedule: Q01DX009 (ip), vehicle: saline) 106 % of control.
With `O=[N+]([O-])c1ccc(-c2nc3ncccn3n2)cc1`, the T/C is, setting by setting: (dose: 100.0 mg/kg/injection, schedule: Q04DX003 (ip), vehicle: saline with Tween-80) 90 % of control; (dose: 200.0 mg/kg/injection, schedule: Q04DX003 (ip), vehicle: saline with Tween-80) 100 % of control; (dose: 400.0 mg/kg/injection, schedule: Q04DX003 (ip), vehicle: saline with Tween-80) 100 % of control.
On to `COc1ccc(C(C)(C#N)Nc2ccccc2)cc1` (centres undefined), for which the T/C is, setting by setting: (dose: 50.0 mg/kg/injection, schedule: Q04DX003 (ip), vehicle: saline sonified) 100 % of control; (dose: 100.0 mg/kg/injection, schedule: Q04DX003 (ip), vehicle: saline sonified) 100 % of control; (dose: 200.0 mg/kg/injection, schedule: Q04DX003 (ip), vehicle: saline sonified) 100 % of control.
For `Cc1c(C)c(CC#N)c(C)c(C)c1CC#N`, the T/C was 91 % of control under setting [2]; 91 % of control under setting [3]; 87 % of control under setting [6]; 92 % of control under setting [14]; 91 % of control under setting [12].
For `Cc1ccc(S(=O)(=O)OCC2C3C=CC(C3)C2COS(=O)(=O)c2ccc(C)cc2)cc1` (centres undefined), the T/C under setting [6] was 86 % of control; the T/C under setting [14] is 86 % of control; the T/C under setting [12] is 104 % of control; the T/C (dose: 200.0 mg/kg/injection, schedule: Q04DX003 (ip), vehicle: Klucel (hydroxypropylcellulose) (HPC)) was 90 % of control; the T/C under setting [13] was 100 % of control; the T/C (dose: 400.0 mg/kg/injection, schedule: Q04DX003 (ip), vehicle: Klucel (hydroxypropylcellulose) (HPC)) is 90 % of control.
Turning to `CCCCn1cnc2c(SC)ncnc21`, the T/C reads like this: (dose: 22.0 mg/kg/injection, schedule: Q04DX003 (ip), vehicle: saline) 100 % of control; (dose: 33.0 mg/kg/injection, schedule: Q04DX003 (ip), vehicle: saline) 104 % of control; under setting [4], 95 % of control; under setting [5], 104 % of control; (dose: 75.0 mg/kg/injection, schedule: Q04DX003 (ip), vehicle: saline) 113 % of control; under setting [7], 100 % of control. Besides, the T/C reads like this: under setting [10], 104 % of control; under setting [8], 104 % of control; under setting [11], 90 % of control.
